Test system: male and female SD rats
Experiment: 14-day dose-range-finding oral gavage study
Assay type: in vivo, rat
Conditions: both sexes, all doses
Procedure: Dose-range-finding (14-day) studies were conducted using male and female rats to establish dose levels for 90-day studies and identify potential target organ toxicities. Male and female rats (n = 5 sex/group, a control and three dose groups, corn oil vehicle dose volume of 5 mL/kg) were administered PFASs by oral gavage daily for 14 days and euthanized on study day (SD) 15. The dose levels for PFHI, CTFPA, and MHFPK were 0, 30, 100, and 300 mg/kg-day. The dose levels for PFNAC were 0, 10, 30, and 100 mg/kg-day. The in vivo data collected included BW, BWCs, FC, cage-side observations, and physical exams. Gross necropsies, relative and absolute organ weights, and clinical chemistry data were collected for all the groups. Macroscopic and microscopic pathology examinations were conducted for the control and high-dose groups initially; the other groups were examined if justified by experimental findings. Plasma samples were analyzed ~2 h post dosing on day 1 and at day 15 for the parent PFAS chemical.
Neurotoxicity was evaluated using the functional observational battery (FOB) and measuring locomotor activity (LMA) 2–4 h post dosing on SDs 78–80 and 80–84, respectively. For both the 14- and 90-day studies, an ophthalmologic examination was conducted prior to randomization and near the end of the study, using indirect ophthalmoscopy and slit–lamp biomicroscopy (as needed) after the administration of a mydriatic solution.
Hematology, biochemistry, and coagulation endpoints were measured at the termination of the study. A Siemens Advia 2120i hematology analyzer (Siemens Healthineers, Erlangen, Germany) was used to measure (or calculate) the parameters related to the complete blood count, leukocyte differential count, and reticulocyte count. The hematology parameters are listed and described in Table 2. The prothrombin time […] and activated partial thromboplastin time (APTT) were measured using an Instrumentation Laboratory (Bedford, MA, USA) ACL Elite Pro coagulation analyzer (laser–nephelometric centrifugal method).
At necropsy, the rats were visually examined for external abnormalities and organ weights (absolute and relative to the BW and brain weight), which were recorded (paired organs weighed together). The tissues were preserved in 10% neutral buffered formalin (NBF), except for the ocular tissues, testes, and epididymides, which were preserved in modified Davidson’s fixative and later transferred to 10% NBF. Bone marrow smears were prepared from the femurs, and the slides were air-dried, fixed in methanol, stained, and stored at room temperature for possible future evaluation. The preserved tissues were embedded in paraffin, sectioned, stained with hematoxylin and eosin, and examined by a board-certified veterinary pathologist.

| Structure (SMILES) | Bodyweight and bodyweight gain | Clinical chemistry | Clinical observations | Coagulation endpoints | Feed consumption | Gross lesions | Hematology | Histopathology | Morbidity and mortality | Ophthalmology |
| --- | --- | --- | --- | --- | --- | --- | --- | --- | --- | --- |
| C=CC(=O)OCC(F)(F)C(F)(F)C(F)(F)C(F)(F)C(F)(F)C(F)(F)C(F)(F)C(F)F [PFNAC, 1H,1H,9H-Perfluorononyl acrylate] | No changes | From mild to moderate decreases in mean cholesterol levels in males at all the dose levels and in females at 30 and 100 mg/kg-day, with from mild to moderate increases in triglycerides in both sexes at 100 mg/kg-day and in females at 30 mg/kg-day | None | No effects | No effects | None | No effects considered as chemical related | From minimal to moderate liver hypertrophy in males only in 2/5, 3/5, and 4/4 at doses of 10, 30, and 100 mg/kg-day, respectively | None | No ocular lesions |
| O=C(O)C(F)(Cl)C(F)(F)F (centres unmarked) [CTFPA, 2-Chloro-2,3,3,3-tetrafluoropropanoic acid] | No changes | Females: mild increases in albumin, A/G ratio and mild sporadic decreases in globulin and minimal increases in the total protein; males: minimal increases in calcium and from minimal to mild increases in BUN at all the dose levels. At 300 mg/kg-day, mild increases in ALPi | None | No effects | No effects | None | Mild increases in MPV in males at all the doses, not seen in females | From minimal to moderate diffuse hepatocellular hypertrophy seen in the livers of males at ≥30 mg/kg-day (5/5 in all the groups, with severity increasing with dose) and females at ≥100 mg/kg-day (5/5 with, severity increasing with dose) | None | No ocular lesions |
| CC(=O)C(F)(F)C(F)(F)C(F)(F)F [MHFPK, Methyl heptafluoropropyl ketone] | No changes | Minimal increases in BUN and creatinine at 300 mg/kg-day for males; increased creatinine in females at ≥100 mg/kg-day | None | No effects | No effects | None | No effects considered as chemical related | No test-substance-related changes | None | No ocular lesions |
| FC(F)(F)C(F)(F)C(F)(F)C(F)(F)CCI [PFHI, 1H,1H,2H,2H-Perfluorohexyl iodide] | No changes | Mild increases in cholesterol levels in both sexes at 300 mg/kg-day and mild increases in glucose in males only at ≥100 mg/kg-day; from minimal to moderate increases in phosphorus in both sexes in all the dose groups | None | No effects | Females: dose-dependent increase, not correlated with bodyweight changes; Males: no effects | None | Decreased red cell mass at 300 mg/kg-day in females and all the dose levels in males; minimal increases in absolute reticulocyte concentrations and from minimal to mild increases in MPV in both sexes at all the dose levels | Mild liver hypertrophy in 4/5 males at 300 mg/kg-day and in 1/5 at 100 mg/kg-day; none in females | None | No ocular lesions |

Same assay, conditions: both sexes, all doses

| Structure (SMILES) | Organ weight changes |
| --- | --- |
| C=CC(=O)OCC(F)(F)C(F)(F)C(F)(F)C(F)(F)C(F)(F)C(F)(F)C(F)(F)C(F)F [PFNAC, 1H,1H,9H-Perfluorononyl acrylate] | Dose-proportional increases in absolute and relative liver weights in all exposed males and females |
| O=C(O)C(F)(Cl)C(F)(F)F (centres unmarked) [CTFPA, 2-Chloro-2,3,3,3-tetrafluoropropanoic acid] | Females: liver at >100 mg/kg-day; males: liver, dose-dependent pattern in all the dose groups |
| CC(=O)C(F)(F)C(F)(F)C(F)(F)F [MHFPK, Methyl heptafluoropropyl ketone] | No test-substance-related changes |
| FC(F)(F)C(F)(F)C(F)(F)C(F)(F)CCI [PFHI, 1H,1H,2H,2H-Perfluorohexyl iodide] | Increases in absolute and relative liver weights in males at 300 mg/kg-day and increases in liver weight/bodyweight ratio at ≥100 mg/kg-day; no changes in females |

Reference: article PMC12298827, “Subchronic Toxicities of Four Per- and Polyfluoroalkyl Substances (PFASs) by Oral Exposure in Sprague–Dawley Rats” (Toxics, 2025)
